Laboratory results published in patent US20150359810A1, “METHODS FOR TREATING EPSTEIN-BARR VIRUS (EBV) ASSOCIATED CANCERS USING ORAL FORMULATIONS OF 5-AZACYTIDINE” (Celgene Corporation, priority 2014, published 2015).
Entries after “also recorded” stand apart in the source; their conditions may differ.

Assays:
[1] = test system: EBV R promoter (CpGs 16-20); experiment: EBV promoter methylation by pyrosequencing in RAEL cells (R promoter); format: cell-based, Epstein-Barr Virus
Protocol: (§1) Assay Procedure: The RAEL and Ramos Burkitt's lymphoma cell lines were treated with vehicle (water) or AZA once a day (qd) for the number of days indicated in FIG. 6 and FIG. 15. For the experiment described in FIG. 6, cells were collected on days 1 through 9 (singlicate sample per condition per time point); at each time point, an aliquot of cells was used to purify deoxyribonucleic acid (DNA) (DNeasy Blood & Tissue Kit; Qiagen; Valencia, Calif.) for EBV DNA (Z and R promoters) methylation analysis (FIG. 7; FIG. 8) at EpigenDx (Hopkinton, Mass.), while a second aliquot of cells was lysed in QuantiGene Lysis Buffer for gene expression analysis (FIG. 9 to FIG. 14) using the QuantiGene Multiplex 2.0 assay (Affymetrix; Santa Clara, Calif.). The pyrosequencing assay used at EpigenDx to assess the methylation status of cytosine-phosphate-guanine dinucleotides (CpGs) 1-3 of the EBV Z promoter (Li L, Su X, Choi G, Cao Y, Ambinder R, Tao Q. Methylation profiling of Epstein-Barr virus immediate-early gene promoters, BZLF1 (EBV gene encoding for the Zta transcription factor) and BRLF1 (EBV gene encoding for the Rta transcription factor) in tumors of epithelial, NK- and B-cell origins. BMC Cancer 2012 Mar. 29; 12:125) was ADS3981-FS1, while that for CpGs 16-20 of the EBV R promoter (Li, 2012) was ADS3984-FS2.
(§2) The RAEL EBV^+ Burkitt's lymphoma cell line was treated with vehicle or 0.3 μM AZA once a day for 4 days (FIG. 6). Cells were harvested on days 1 through 9 to assess the effects of AZA on EBV promoter (Zp and Rp) methylation, as well as EBV gene expression. […] Zp and Rp methylation remained low for the remainder of the experiment, even in the absence of continued AZA treatment (FIG. 7; FIG. 8). In parallel with the effects of AZA on EBV promoter methylation, AZA induced expression of EBV genes.

higher-risk MDS = conditions: Phase III study; administered subcutaneously; subjects with higher-risk MDS; cited from earlier work
[2] = test system: DNA methylation (LINE-1) in PBMC DNAs; experiment: LINE-1 DNA methylation in PBMC DNAs of patients; format: in vivo, human; conditions: Arm C patients, 200 mg oral AZA alone; Days 1, 8, and 15 of 21-day cycle
Protocol: In one embodiment, PBMC DNA was used for assessing changes in DNA methylation, using assays such as LINE-1 methylation, %5 mdC mass spec, Infinium® Methylation27 Array, and Infinium® Methylation450 Array. In one study, DNA methylation (LINE-1) in PBMC DNAs from patients in clinical studies described in Example 1, dosed with 200 mg oral AZA alone or in combination with CDBCA or ABX, was measured on Days 1, 8, and 15 of 21-day cycle. […] In one study, %5 mdC in PBMC DNAs from patients in clinical studies described in Example 1, dosed with 200 mg oral AZA alone or in combination with CDBCA or ABX, was measured on Days 1, 8, and 15 of 21-day cycle. In one study, methylation levels were measured on Days 1, 8, and 15 of 21-day cycle using Infinium® Methylation27 Array (patients dosed with 200 mg oral AZA alone or in combination with CDBCA or ABX) and density profiles of average methylation levels were analyzed. […] In another study, methylation levels were measured using Infinium® Methylation450 Array (patients dosed with 300 mg oral AZA alone or in combination with CDBCA or ABX) and density profiles of average methylation levels were analyzed, as well as % change of hypermethylated loci (beta >0.7) upon treatment.

[3] = test system: EBV proteins EBNA1, EBNA2, Zta, and LMP1 in Ramos cell line; experiment: EBV protein expression by Western blotting in Ramos cell line; format: cell-based, Epstein-Barr virus; conditions: AZA once a day for 1 or 2 days, cells collected on day 6, listed as AZA
Protocol: as §1, with “ADS3984-FS2. […]” for “ADS3984-FS2.”

[4] = test system: EBV proteins EBNA1, EBNA2, Zta, and LMP1 in RAEL cell line; experiment: EBV protein expression by Western blotting in RAEL cell line; format: cell-based, Epstein-Barr virus; conditions: cells collected on day 6
[5] = PK exposure of AZA in patients of the clinical study; format: in vivo; conditions: human, plasma; oral AZA 200 mg or 300 mg, alone or in combination; read-out: AUCinf of patients in whom decreases in DNA methylation were observed
[6] = test system: EBV Z promoter (CpGs 1-3); experiment: EBV promoter methylation by pyrosequencing in RAEL cells (Z promoter); format: cell-based, Epstein-Barr Virus
Protocol: as §1, §2

Zta = conditions: RAEL cells; 72 hours; AZA 0.3 or 1.0 uM, ROMI 0.5, 1.0, or 2.0 nM, or combination
BHRF1 = experiment: EBV gene expression in RAEL cells, QuantiGene Multiplex 2.0 assay; format: cell-based, Epstein-Barr Virus; conditions: 0.3 μM AZA once a day for 4 days, days 1 through 9, listed as AZA
Protocol: as §1, §2

BRLF1 = experiment: as above; format: cell-based, Epstein-Barr Virus; conditions: 0.3 μM AZA once a day for 4 days, days 1 through 9, listed as AZA
Protocol: as §1, §2

LMP1 = experiment: as above; format: cell-based, Epstein-Barr Virus; conditions: 0.3 μM AZA once a day for 4 days, days 1 through 9, listed as AZA
Protocol: as §1, §2

EBNA2 = experiment: as above; format: cell-based, Epstein-Barr Virus; conditions: 0.3 μM AZA once a day for 4 days, days 1 through 9, listed as AZA
Protocol: as §1, §2

BLLF1 = experiment: as above; format: cell-based, Epstein-Barr Virus; conditions: 0.3 μM AZA once a day for 4 days, days 1 through 9
Protocol: as §1, §2

EBNA1 = experiment: as above; format: cell-based, Epstein-Barr Virus; conditions: 0.3 μM AZA once a day for 4 days, days 1 through 9, listed as AZA
Protocol: as §1, §2

DNA methylation in PBMCs = DNA methylation in PBMCs of patients by Infinium Methylation27/Methylation450 Array; format: in vivo, human; conditions: Arm C alone; for patients with DNA hypomethylation in PBMCs: Arm A with CBDCA
[7] = RAEL EBV+ Burkitt's lymphoma cell line, 0.3 μM AZA once a day for 4 days, harvested days 1 through 9, listed as AZA
[8] = RAEL, 0.3 μM AZA once a day for 4 days
[9] = RAEL, after 0.3 μM AZA once a day for 4 days, up to day 9

Compound: Nc1ncn([C@@H]2O[C@H](CO)[C@@H](O)[C@H]2O)c(=O)n1 [5-azacytidine, 4-amino-1-β-D-ribofuranosyl-1,3,5-triazin-2(1H)-one]
- Rp methylation [1, 7]: causes the demethylation; also recorded: precipitously decreased
- time to maximal hypomethylation of Rp [1, 8]: ≤ 4 days
- Rp methylation for the remainder of the experiment, in the absence of continued AZA treatment [1, 9]: remained low
- survival and time to AML transformation or death (higher-risk MDS): significantly prolonged survival and time to AML transformation or death
- DNA methylation (LINE-1) in PBMC DNAs [2]: Decreases in LINE-1 methylation were observed for two patients
- expression of the EBV proteins EBNA1, EBNA2, Zta, and LMP1 [3]: not in the EBV-negative (EBV−) Ramos
- expression of the EBV proteins EBNA1, EBNA2, Zta, and LMP1 ([4]; RAEL (EBV+) cell line, AZA once a day for 1 or 2 days, listed as AZA): induces expression of EBV proteins; also recorded: dose-dependently induced expression
- induction of EBV proteins, AZA for 2 days compared with AZA for 1 day ([4]; RAEL, Western blotting): greater induction of EBV proteins
- AUC(0-inf) [5]: > 350 ng·h/mL
- Zp methylation [6, 7]: causes the demethylation; also recorded: precipitously decreased
- time to maximal hypomethylation of Zp [6, 8]: ≤ 4 days
- Zp methylation for the remainder of the experiment, in the absence of continued AZA treatment [6, 9]: remained low
- Zta expression (Zta band intensity with GAPDH as house-keeping protein) (Zta): slight increase in Zta expression
- ribonucleic acid expression of BHRF1 (BHRF1): strongly induced expression
- ribonucleic acid expression of BRLF1 (BRLF1): strongly induced expression
- ribonucleic acid expression of LMP1 (LMP1): strongly induced expression
- ribonucleic acid expression of EBNA2 (EBNA2): strongly induced expression
- ribonucleic acid expression of BLLF1 (BLLF1): did not affect the expression of BLLF1 as much as other genes
- ribonucleic acid expression of EBNA1 (EBNA1): strongly induced expression
- change in DNA methylation in PBMCs upon treatment (Infinium Methylation27 Array, density profiles of average methylation levels) (DNA methylation in PBMCs; 200 mg oral AZA, Arm A with CDBCA, Arm B with ABX, Days 1, 8, and 15 of 21-day cycle): decreases in hypermethylated loci (beta >0.7) were observed
- patients with DNA hypomethylation in PBMCs (DNA methylation in PBMCs; 200 mg oral AZA, Arm B with ABX): 5/6
- patients with DNA hypomethylation in PBMCs (DNA methylation in PBMCs; 300 mg oral AZA): 3/3
